What all share (assay type): ADME, organism-based
Details in all cases: in vivo

Data set [1] is described as follows: AUC in mouse at 10 mg/kg, po by WinNonlin non-compartmental analysis. Details: dose 10 mg/kg, route po.
The nature of data set [2]: Oral bioavailability in mouse at 10 mg/kg by WinNonlin non-compartmental analysis.
A short description of data set [3]: Cmax in mouse at 10 mg/kg, po by WinNonlin non-compartmental analysis. Details: dose 10 mg/kg, route po.

Broadly, the AUC is the area under the concentration-time curve, a measure of exposure. In general, bioavailability refers to dose-corrected exposure relative to a reference, in per cent. Broadly, the Cmax is the highest concentration seen after dosing.

SMILES strings stand for the structures.

In the case of `CC(C)c1cnc(-c2cc(Cl)ccc2F)cc1Nc1ccncc1C(=O)NCCN`, the AUC in data set [1] (read-out: AUC) came out at 0.93 µM·h. The compound further returned a bioavailability in data set [2] of 16%. The compound further registered a Cmax in data set [3] of 200 nM.
Take `CC(C)c1cnc(-c2cc(Cl)ccc2F)cc1Nc1ccncc1C(=O)N[C@@H](C)CO`: the AUC in data set [1] is 5.25 µM·h. Further, the F in data set [2] (po, 10 mg/kg) was 88%. Moreover, in data set [3], the Cmax came to 1570 nM.
Turning to `CC(C)c1cnc(-c2cc(Cl)ccc2F)cc1Nc1ccncc1C(=O)NCC(N)=O`, the AUC in data set [1] (read-out: AUC) was 1.47 µM·h. Moreover, the bioavailability in data set [2] is 38%. The compound also registered a Cmax in data set [3] of 990 nM.
Take `CC(C)c1cnc(-c2cc(Cl)ccc2F)cc1Nc1ccncc1C(=O)NC[C@H](C)O`: in data set [1] (read-out: AUC), the AUC was 2.54 µM·h. In data set [2], this compound came in with a bioavailability of 33%. For the same compound, in data set [3], the Cmax was 1880 nM.
As for `CC(C)c1cnc(-c2cc(Cl)ccc2F)cc1Nc1ccncc1C(=O)NC(CO)CO` [PF-06952229], the AUC in data set [1] (read-out: AUC) came out at 16.2 µM·h. The bioavailability in data set [2] was 87%. The compound further showed a Cmax in data set [3] of 7070 nM.

The values are drawn from ChEMBL document CHEMBL5223120 (Bioorg Med Chem Lett, 2022).
